# Entries after “also recorded” stand apart in the source; their conditions may differ.
# B1: activin A: growth factor used at 100 ng/ml as differentiation factor (protein, UniProt P08476 311-426, looked up)
# Inhibin beta A chain: GLECDGKVNICCKKQFFVSFKDIGWNDWIIAPSGYHANYCEGECPSHIAGTSGSSLSFHSTVINHYRMRGHSPFANLKSCCVPTKLRPMSMLYYDDGQNIIKKDIQNMIVEECGCS
# modifications: Inhibin beta A chain
# notes: growth factor used at 100 ng/ml as differentiation factor
# How the values were obtained:
# Human ESCs (CyT203) [1] = test: Differentiation of hESCs in growth factor conditions, marker gene expression by QPCR; assay type: cell-based; conditions: for expression of brachyury: RPMI, 0% FBS day 1, 0.2% day 2, 2% days 3-5, activin A 100 ng/ml at 36 and 48 hours; for differentiation of hESCs to initial cell fate, as indicated by marker expression: cultures lacking insulin, follistatin 100 ng/ml, noggin 200 ng/ml, BMP4 100 ng/ml, 5 days
# Method: Human ESCs (CyT203) were grown in growth media on a mouse fibroblast feeder layer. On the day differentiation began, cultures were washed once with phosphate buffered saline (PBS) and then placed into differentiation media. Differentiation media consisted of RPMI with penicillin/streptomycin and Glutamax containing 0% FBS on the first day, 0.2% v/v FBS on the second day and 2% v/v FBS on days 3-5. Growth factors were used at the following concentrations: activin A at 100 ng/ml, follistatin at 100 ng/ml, noggin at 200 ng/ml, BMP4 at 100 ng/ml, and SU5402 at 5 μM. Individual cultures received the same growth factor cocktail with or without the addition of 10 μg/ml human recombinant insulin for all 5 days of differentiation as indicated. Samples were taken at daily intervals for analysis of gene expression using QPCR to monitor the differentiation of the populations in response to the different growth factor treatments. At the conclusion of the treatment phase the cells were fixed in 4% paraformaldehyde for 15 min at room temperature and reacted with antibodies to SOX17 or PAX6. Human embryonic stem cells (CyT203) were grown in growth media on a mouse fibroblast feeder layer. On the day differentiation began, cultures were washed once with phosphate buffered saline (PBS) and then placed into differentiation media. Differentiation media consisted of RPMI with penicillin/streptomycin and Glutamax containing 0% FBS on the first day, 0.2% v/v FBS on the second day and 2% v/v FBS on days 3-5. Cultures were treated with SU5402 at 5 μM with or without the addition of human recombinant insulin at 10 μg/ml. Individual cultures received the same growth factor cocktail for all 5 days of differentiation as indicated. Samples were taken at daily intervals for analysis of gene expression using QPCR to monitor the differentiation of the populations in response to the different growth factor treatments. At the conclusion of the treatment phase the cells were fixed in 4% paraformaldehyde for 15 min at room temperature and reacted with antibodies to SOX17, OCT4 or PAX6.
# Human ESCs (CyT203) [2] = test: Immunofluorescence of treated hESCs with antibodies to SOX17, OCT4 or PAX6; assay type: cell-based
# Method: Human ESCs (CyT203) were grown in growth media on a mouse fibroblast feeder layer. On the day differentiation began, cultures were washed once with phosphate buffered saline (PBS) and then placed into differentiation media. Differentiation media consisted of RPMI with penicillin/streptomycin and Glutamax containing 0% FBS on the first day, 0.2% v/v FBS on the second day and 2% v/v FBS on days 3-5. Growth factors were used at the following concentrations: activin A at 100 ng/ml, follistatin at 100 ng/ml, noggin at 200 ng/ml, BMP4 at 100 ng/ml, and SU5402 at 5 μM. Individual cultures received the same growth factor cocktail with or without the addition of 10 μg/ml human recombinant insulin for all 5 days of differentiation as indicated. Samples were taken at daily intervals for analysis of gene expression using QPCR to monitor the differentiation of the populations in response to the different growth factor treatments. At the conclusion of the treatment phase the cells were fixed in 4% paraformaldehyde for 15 min at room temperature and reacted with antibodies to SOX17 or PAX6.
# Human embryonic stem cells (CyT203) were grown in growth media on a mouse fibroblast feeder layer. On the day differentiation began, cultures were washed once with phosphate buffered saline (PBS) and then placed into differentiation media. Differentiation media consisted of RPMI with penicillin/streptomycin and Glutamax containing 0% FBS on the first day, 0.2% v/v FBS on the second day and 2% v/v FBS on days 3-5. Cultures were treated with SU5402 at 5 μM with or without the addition of human recombinant insulin at 10 μg/ml. Individual cultures received the same growth factor cocktail for all 5 days of differentiation as indicated. Samples were taken at daily intervals for analysis of gene expression using QPCR to monitor the differentiation of the populations in response to the different growth factor treatments. At the conclusion of the treatment phase the cells were fixed in 4% paraformaldehyde for 15 min at room temperature and reacted with antibodies to SOX17, OCT4 or PAX6.
# [3] = QPCR, activin A 100 ng/ml, SU5402 5 μM
# [4] = QPCR, insulin 10 μg/ml added to growth factor treatment
# [5] = QPCR, no insulin, continued presence of activin A 100 ng/ml
molecule,measurement,setting,value
"Cc1c[nH]c(/C=C2\C(=O)Nc3ccccc32)c1CCC(=O)O [SU5402, reference compound]",expression of brachyury,"Human ESCs (CyT203) [1]; QPCR, no insulin, SU5402 5 μM",elevated expression
same,"differentiation of hESCs to initial cell fate, as indicated by marker expression",Human ESCs (CyT203) [1]; [3],make all available fate choices; also recorded: made all available fate choices
same,expression of CDX2,"Human ESCs (CyT203) [1]; QPCR, no insulin, SU5402 5 μM",elevated expression
same,expression of SOX1,"Human ESCs (CyT203) [1]; QPCR, no insulin, SU5402 5 μM",elevated expression
same,expression of SOX7,"Human ESCs (CyT203) [1]; QPCR, no insulin, SU5402 5 μM",elevated expression
"insulin: human recombinant insulin, 10 μg/ml, signals through the PI-3-kinase pathway",OCT4-positive cell numbers,Human ESCs (CyT203) [2]; high levels of insulin present,maintenance
same,number of SOX17-positive cells in response to activin A treatment,Human ESCs (CyT203) [2]; high levels of insulin present,decrease
same,number of PAX6-positive cells in response to noggin/follistatin treatment,Human ESCs (CyT203) [2]; insulin in the media,reduced
same,production of cells of each of the primary lineages,"Human ESCs (CyT203) [1]; 10 μg/ml human recombinant insulin added to the growth factor cocktail, all 5 days",significantly reduced
same,expression of CDX2 in the presence of insulin,Human ESCs (CyT203) [1]; [4],decreased expression
same,expression of PAX6 in the presence of insulin,Human ESCs (CyT203) [1]; [4],decreased expression
same,expression of SOX1 in the presence of insulin,Human ESCs (CyT203) [1]; [4],decreased expression
same,expression of SOX7 in the presence of insulin,Human ESCs (CyT203) [1]; [4],decreased expression
same,expression of WNT3A in the presence of insulin,Human ESCs (CyT203) [1]; [4],decreased expression
same,expression of brachyury in the presence of insulin,Human ESCs (CyT203) [1]; [4],decreased expression
same,generalized differentiation under SU5402,"Human ESCs (CyT203) [1]; SU5402 5 μM plus insulin 10 μg/ml, brachyury, SOX1, SOX7, CDX2",inhibited strongly
same,efficiency with which the hESCs differentiate to each of the 4 primary lineages,Human ESCs (CyT203) [1]; high levels of insulin (10 μg/ml) in the media,decrease
B1,expression of brachyury,"Human ESCs (CyT203) [1]; QPCR, no insulin, SU5402 5 μM",elevated expression
same,"differentiation of hESCs to initial cell fate, as indicated by marker expression",Human ESCs (CyT203) [1]; [3],induced initial fate commitment to mesendoderm
same,PAX6 mRNA,"Human ESCs (CyT203) [1]; QPCR, no insulin, activin A 100 ng/ml",induction
same,expression of WNT3A,"Human ESCs (CyT203) [1]; QPCR, no insulin, activin A 100 ng/ml, at 36 and 48 hours",elevated expression
same,expression of GSC,Human ESCs (CyT203) [1]; [5],elevated expression
same,expression of SOX17,Human ESCs (CyT203) [1]; [5],elevated expression
same,further differentiation of the mesendoderm,"Human ESCs (CyT203) [1]; continued presence of activin A 100 ng/ml, indicated by SOX17 and GSC",further differentiated to definitive endoderm

# — patent US20100323442A1, “MODULATION OF THE PHOSPHATIDYLINOSITOL-3-KINASE PATHWAY IN THE DIFFERENTIATION OF HUMAN EMBRYONIC STEM CELLS” (priority 2006, published 2010)
